Test results published in ChEMBL document CHEMBL3046027, “In vitro and in vivo antifungal activity of synthetic pure isothiocyanates against Sclerotinia sclerotiorum” (Pest Manag Sci, 2011).

Experiments:
Sclerotinia sclerotiorum [1] = assay: In vivo antifungal Sclerotinia sclerotiorum in Pepper (Capsicum annuum L. cv. Sera Demre) assessed as inhibition of mycelial growth in volatile phase at 168 umol/L measured after 10 to 14 weeks; type: functional
Sclerotinia sclerotiorum [2] = assay: In vivo antifungal Sclerotinia sclerotiorum in Pepper (Capsicum annuum L. cv. Sera Demre) assessed as inhibition of mycelial growth in volatile phase at 84 umol/L measured after 10 to 14 weeks; type: functional
Sclerotinia sclerotiorum [3] = assay: Antifungal activity against Sclerotinia sclerotiorum assessed as inhibition of mycelial growth in contact phase at 2531 umol/l measured at 20 degC after 5 days; type: functional; conditions: 120 h, read-out: GI
Sclerotinia sclerotiorum [4] = assay: Antifungal activity against Sclerotinia sclerotiorum assessed as inhibition of mycelial growth in contact phase at 1688 umol/l measured at 20 degC after 5 days; type: functional; conditions: 120 h, read-out: GI
Sclerotinia sclerotiorum [5] = assay: Antifungal activity against Sclerotinia sclerotiorum assessed as inhibition of mycelial growth in contact phase at 844 umol/l measured at 20 degC after 5 days; type: functional; conditions: 120 h, read-out: GI
Sclerotinia sclerotiorum [6] = assay: Antifungal activity against Sclerotinia sclerotiorum assessed as inhibition of mycelial growth in contact phase at 759 umol/l measured at 20 degC after 5 days; type: functional; conditions: 120 h, read-out: GI
Sclerotinia sclerotiorum [7] = assay: Antifungal activity against Sclerotinia sclerotiorum assessed as inhibition of mycelial growth in contact phase at 591 umol/l measured at 20 degC after 5 days; type: functional; conditions: 120 h, read-out: GI
Sclerotinia sclerotiorum [8] = assay: Fungistatic activity in Sclerotinia sclerotiorum assessed as inhibition of carpogenic germination in volatile phase at 840 umol/l measured at 20 degC after 5 days relative to control; type: functional; conditions: 120 h
Sclerotinia sclerotiorum [9] = assay: Fungistatic activity in Sclerotinia sclerotiorum assessed as inhibition of carpogenic germination in volatile phase at 422 umol/l measured at 20 degC after 5 days relative to control; type: functional; conditions: 120 h
Sclerotinia sclerotiorum [10] = assay: Fungistatic activity in Sclerotinia sclerotiorum assessed as inhibition of carpogenic germination in volatile phase at 84 umol/l measured at 20 degC after 5 days relative to control; type: functional; conditions: AT84, 120 h
Sclerotinia sclerotiorum [11] = assay: Fungistatic activity in Sclerotinia sclerotiorum assessed as inhibition of carpogenic germination in volatile phase at 42 umol/l measured at 20 degC after 5 days relative to control; type: functional; conditions: 120 h
Sclerotinia sclerotiorum [12] = assay: Fungistatic activity in Sclerotinia sclerotiorum assessed as sclerotial viability measured at 20 degC after 5 days; type: functional, organism-based; conditions: 120 h
Sclerotinia sclerotiorum [13] = assay: Fungistatic activity in Sclerotinia sclerotiorum assessed as inhibition of mycelial growth in volatile phase measured at 20 degC after 5 days; type: functional, organism-based; conditions: 120 h
Sclerotinia sclerotiorum [14] = assay: Fungistatic activity in Sclerotinia sclerotiorum assessed as inhibition of mycelial growth in contact phase measured at 20 degC after 5 days; type: functional, organism-based; conditions: 120 h
Sclerotinia sclerotiorum [15] = assay: Fungistatic activity in Sclerotinia sclerotiorum assessed as viability in volatile phase at 844 umol/l measured at 20 degC after 5 days relative to control; type: functional; conditions: 120 h, read-out: GI
Sclerotinia sclerotiorum [16] = assay: Fungitoxic activity in Sclerotinia sclerotiorum assessed as inhibition of mycelial growth in contact phase at 2531 umol/l measured at 20 degC after 5 days relative to control; type: functional; conditions: 120 h, read-out: GI
Sclerotinia sclerotiorum [17] = assay: Antifungal activity against Sclerotinia sclerotiorum assessed as inhibition of mycelial growth in volatile phase at 840 umol/l measured at 20 degC after 5 days; type: functional; conditions: 120 h, read-out: GI
Sclerotinia sclerotiorum [18] = assay: Antifungal activity against Sclerotinia sclerotiorum assessed as inhibition of mycelial growth in volatile phase at 588 umol/l measured at 20 degC after 5 days; type: functional; conditions: 120 h, read-out: GI
Sclerotinia sclerotiorum [19] = assay: Antifungal activity against Sclerotinia sclerotiorum assessed as inhibition of mycelial growth in volatile phase at 422 umol/l measured at 20 degC after 5 days; type: functional; conditions: 120 h, read-out: GI
Sclerotinia sclerotiorum [20] = assay: Antifungal activity against Sclerotinia sclerotiorum assessed as inhibition of mycelial growth in volatile phase at 84 umol/l measured at 20 degC after 5 days; type: functional; conditions: 120 h, read-out: GI
Sclerotinia sclerotiorum [21] = assay: Antifungal activity against Sclerotinia sclerotiorum assessed as inhibition of mycelial growth in volatile phase at 42 umol/l measured at 20 degC after 5 days; type: functional; conditions: 120 h, read-out: GI
Sclerotinia sclerotiorum [22] = assay: Fungistatic activity in Sclerotinia sclerotiorum assessed as inhibition of mycelial growth in contact phase at 1688 umol/l measured at 20 degC after 5 days relative to control; type: functional; conditions: 120 h, read-out: GI
Sclerotinia sclerotiorum [23] = assay: Antifungal activity against Sclerotinia sclerotiorum assessed as inhibition of germination in volatile phase at 844 umol/l measured at 20 degC after 5 days; type: functional; conditions: 120 h
Sclerotinia sclerotiorum [24] = assay: Antifungal activity against Sclerotinia sclerotiorum assessed as inhibition of germination in volatile phase at 422 umol/l measured at 20 degC after 5 days; type: functional; conditions: 120 h
Sclerotinia sclerotiorum [25] = assay: Antifungal activity against Sclerotinia sclerotiorum assessed as inhibition of germination in volatile phase at 253 umol/l measured at 20 degC after 5 days; type: functional; conditions: 120 h
Sclerotinia sclerotiorum [26] = assay: Antifungal activity against Sclerotinia sclerotiorum assessed as inhibition of germination in volatile phase at 84 umol/l measured at 20 degC after 5 days; type: functional; conditions: AT84, 120 h
Sclerotinia sclerotiorum [27] = assay: Antifungal activity against Sclerotinia sclerotiorum assessed as inhibition of germination in volatile phase at 42 umol/l measured at 20 degC after 5 days; type: functional; conditions: 120 h
Sclerotinia sclerotiorum [28] = assay: Fungistatic activity in Sclerotinia sclerotiorum assessed as inhibition of mycelial growth in volatile phase at 588 umol/l measured at 20 degC after 5 days relative to control; type: functional; conditions: 120 h, read-out: GI

Compound `CCCCN=C=S` [BUTYL ISOTHIOCYANATE] has an inhibition in vivo at 168 µM (Sclerotinia sclerotiorum [1]) of 63.3%, an inhibition in vivo at 84 µM (Sclerotinia sclerotiorum [2]) of 31.7% and an inhibition of growth at 2531 µM (Sclerotinia sclerotiorum [3]) of 100%. The inhibition of growth at 1688 µM (Sclerotinia sclerotiorum [4]) was 100%, the inhibition of growth at 844 µM (Sclerotinia sclerotiorum [5]) was 29.2% and the inhibition of growth at 759 µM (Sclerotinia sclerotiorum [6]) was 11.7%. The inhibition of growth at 591 µM (Sclerotinia sclerotiorum [7]) was 5%, the inhibition at 840 µM (Sclerotinia sclerotiorum [8]) was 92.5% and the inhibition at 422 µM (Sclerotinia sclerotiorum [9]) was 82.5%. It also gave an inhibition at 84 µM (Sclerotinia sclerotiorum [10]) of 80%, an inhibition at 42 µM (Sclerotinia sclerotiorum [11]) of 77.5% and an EC50 (Sclerotinia sclerotiorum [12]) of 403 µM. For the same compound, the EC50 (Sclerotinia sclerotiorum [13]) was 87.3 µM, the EC50 (Sclerotinia sclerotiorum [14]) was 932 µM and the inhibition of growth at 844 µM (Sclerotinia sclerotiorum [15]) was 100%. It also gave an inhibition of growth at 2531 µM (Sclerotinia sclerotiorum [16]) of 100%, an inhibition of growth at 840 µM (Sclerotinia sclerotiorum [17]) of 100% and an inhibition of growth at 588 µM (Sclerotinia sclerotiorum [18]) of 72.3%. For the same compound, the inhibition of growth at 422 µM (Sclerotinia sclerotiorum [19]) was 70.3%, the inhibition of growth at 84 µM (Sclerotinia sclerotiorum [20]) was 48.7% and the inhibition of growth at 42 µM (Sclerotinia sclerotiorum [21]) was 22.8%. For the same compound, the inhibition of growth at 1688 µM (Sclerotinia sclerotiorum [22]) was 100%, the inhibition at 844 µM (Sclerotinia sclerotiorum [23]) was 100% and the inhibition at 422 µM (Sclerotinia sclerotiorum [24]) was 46.7%. It also gave an inhibition at 253 µM (Sclerotinia sclerotiorum [25]) of 13.3%, an inhibition at 84 µM (Sclerotinia sclerotiorum [26]) of 0% and an inhibition at 42 µM (Sclerotinia sclerotiorum [27]) of 0%. For the same compound, the inhibition of growth at 588 µM (Sclerotinia sclerotiorum [28]) was 100%.
